Entries after “also recorded” stand apart in the source; their conditions may differ. Like-named read-outs stand apart in the source and are kept apart here.
Key:
[1] = test system: RNA methyltransferase from Streptomyces antibioticus; details: 50 μM; cited from earlier work
[2] = test system: RNA methyltransferases from Streptomyces (S. antibioticus, S. incarnatus, S. griseolus); details: cited from earlier work
[3] = test system: DNA methylases from S. antibioticus; details: non-sinefungin producer; cited from earlier work
tRNA methylation = details: cited from earlier work
S. antibioticus = details: cited from earlier work
rRNA of S. cerevisiae = details: cited from earlier work
[4] = test system: vaccinia virion mRNA(guanine-7)methyltransferase; details: cited from earlier work
[5] = test system: vaccinia virion mRNA(nucleoside-2'-)methyltransferase; details: cited from earlier work
[6] = test system: Newcastle disease virion mRNA(guanine-7-)methyltransferase; details: cited from earlier work
virion plaque formation = details: 10 μM; cited from earlier work
cellular toxicity = details: cited from earlier work
Cryptosporidium parvum = details: in vivo; cited from earlier work
cutaneous Leishmaniasis = details: mouse, in vivo; cited from earlier work
rat leukemia (BNML) = details: nitrous oxide plus cycloleucine; cited from earlier work
methionine synthetase = details: cited from earlier work
Salmonella typhimurium = details: elevated pressures; cited from earlier work
Streptococcus faecalis = details: elevated pressures; cited from earlier work
E. coli = details: elevated pressures; cited from earlier work
S. aureus = details: elevated pressures; cited from earlier work
[7] = prolonged exposure to clinical concentrations; cited from earlier work
L1210 cells [8] = test: Growth inhibition in L1210 cell culture; format: cell-based
SAM synthetase = details: cited from earlier work
SAM pools in L1210 cells = details: cited from earlier work
L1210 cells [9] = details: absence of polyamine depletion; cited from earlier work
lysosomal ADA = details: 0.02 mM; cited from earlier work
adenosine deaminase [10] = details: cited from earlier work
neoplastic cells = details: cited from earlier work
[11] = 1 mg/kg/day for 5 days; cited from earlier work
adenosine deaminase [12] = details: cited from earlier work; remark: listed apart in the source
viruses = details: cited from earlier work
murine L929 SAHH = details: cited from earlier work
SAH hydrolase = details: cited from earlier work
cell culture = details: cited from earlier work
SAM-synthetase = details: in vivo; cited from earlier work
glutathione = details: ip.; 4.5 mmol/kg buthionine sulfoximine and […] diethyl maleate; cited from earlier work
Brucella canis = details: 2×10 mg/kg; cited from earlier work
[13] = iv., mice; cited from earlier work
[14] = test system: tRNA methylases isolated from E. coli; details: cited from earlier work
rRNA processing = details: cited from earlier work
[15] = test system: mature rRNA in Novikoff hepatoma cells; details: cited from earlier work
[16] = test system: 28S and 18S rRNA formation; details: cited from earlier work
[17] = test system: S. aureus 27660 (erythromycin resistant); format: cell-based
[18] = test system: S. aureus 6538 (erythromycin susceptible); test: Erythromycin disk susceptibility with inhibitor pre-mixed in agar; format: cell-based; details: inhibitor pre-mixed with BHIA or TSA, with erythromycin (FIG. 2)
[19] = test system: internal m^6 A of late SV40 mRNA; details: 0.5 mg/ml; cited from earlier work
[20] = test system: tumor-derived methionine adenosyltransferases; details: cited from earlier work
[21] = test system: rat SAM synthetase M-1 isozyme; details: cited from earlier work
[22] = test system: rat SAM synthetase M-2 isozyme; details: cited from earlier work
cytotoxicity = details: cited from earlier work
[23] = test system: 28S rRNA, 18S rRNA and tRNA; details: NPA 10 μM; c^3 -NPA 10 μM; c^3 -Ari 100 μM; cited from earlier work
SAHH hydrolase = details: cited from earlier work
anaerobic bacteria = details: cited from earlier work

Compound: Nc1ncnc2c1ncn2[C@@H]1O[C@H](C[C@@H](N)CC[C@H](N)C(=O)O)[C@@H](O)[C@H]1O [sinefungin]
- inhibition [1]: 96%
- inhibition of RNA methyltransferases [2]: strongly inhibit RNA methyltransferases; also recorded: inhibited RNA methyltransferase
- inhibition of DNA methylases [3]: noticeably inhibited
- inhibition of methylation by base (tRNA methylation): inhibits the methylation of adenine or guanine to a greater extent than cytosine in tRNA
- inhibition of methylation by base (tRNA methylation; listed as Sinefungin): very strongly inhibits the methylation of G in position 2 and 7, and that of A in position 1 and 6
- sporulation (S. antibioticus): inhibits sporulation
- synthesis of DNA methyltransferases (S. antibioticus): didn't inhibit the synthesis of DNA methyltransferases
- rRNA methylation / stable 18S rRNA (rRNA of S. cerevisiae): inhibits methylation of rRNA in S.cerevisiae and leads to a decrease in stable 18S rRNA
- inhibition ([4]; 100 μM): 100%
- inhibition [4]: potent inhibitors
- inhibition [5]: potent inhibitors
- inhibition [6]: potent inhibitors
- inhibition of virion plaque formation (virion plaque formation): significant inhibition of virion plaque formation
- cellular toxicity (cellular toxicity; 10 μM): no cellular toxicity was detected
- cellular toxicity (cellular toxicity; higher concentrations (above 10 μM)): significant cellular toxicity
- usable dosage in rat model (Cryptosporidium parvum): 10 mg/kg/day
- optimum dosage (cutaneous Leishmaniasis): 4 mg/kg/day
- optimum dosage: times lower than the LD50 (cutaneous Leishmaniasis): 50 times

Compound: [N-]=[N+]=O [nitrous oxide]
- growth inhibiting effects (rat leukemia (BNML)): synergistic growth inhibiting effects
- methionine synthetase (methionine synthetase): inhibiting methionine synthetase
- inhibition of bacteria (Salmonella typhimurium): inhibited
- inhibition of bacteria (Streptococcus faecalis): inhibited
- inhibition of bacteria (E. coli): inhibited
- inhibition of bacteria (S. aureus): inhibited
- adverse effects of prolonged exposure [7]: inhibits cellular proliferation and can lead to megaloblastic anemia, leukopenia, and thrombocytopenia

Compound: CO/C=C\[C@H](N)C(=O)O (stereo in doubt) [L-cis-AMB, L-2-amino-4-methoxy-cis-but-3-enoic acid]
- IC50, fold lower than that of cycloleucine (L1210 cells [8]): about 10 fold
- SAM synthetase inhibition (SAM synthetase): most potent methionine-analogue inhibitor of SAM synthetase at that time
- depletion of SAM (SAM pools in L1210 cells; 1 mM, cultured L1210 cells): rapid and near-total depletion of SAM by 4 hours
- SAM pools in intact cells (SAM pools in L1210 cells; intact cells): rapidly depleting SAM pools in intact cells without affecting precursor incorporation into macromolecules
- IC50 (L1210 cells [9]): 400 µM

Compound: OC[C@H]1O[C@@H](n2cnc3c2NC=NC[C@H]3O)C[C@@H]1O [2'-deoxyconformycin (pentostatin)]
- inhibition of lysosomal ADA (lysosomal ADA): > 97%
- ADA inhibition (adenosine deaminase [10]): potent inhibitors of ADA
- safe and effective low weekly dose (protracted ADA inhibition in neoplastic cells) (neoplastic cells): 0.13 mg/kg
- tolerability in patients [11]: minimal distress

Compound: CC(O)C1=C[C@@H](n2cnc3c(N)ncnc32)[C@H](O)[C@@H]1O (stereo partly drawn) [6'-C-methylneplanocin A]
- resistance to adenosine deaminase (adenosine deaminase [12]): virtually resistant to adenosine deaminase
- antiviral potency and selectivity vs neplanocin A (viruses): surpassing neplanocin A both in antiviral potency and selectivity
- SAHH inhibition (murine L929 SAHH): good inhibitor of murine L929 SAHH

Compound: Nc1ncnc2c1ncn2[C@@H]1C[C@H](O)[C@@H](O)[C@H]1O (relative stereo) [(±)-5-Noraristeromycin]
- SAH hydrolase inhibition (SAH hydrolase): inhibitors of SAHH
- times less cytotoxic (cell culture): 10 to 20 times

Compound: CCCCS(=N)(=O)CCC(N)C(=O)O (stereo not drawn) [buthionine sulfoximine, CH3 (CH2)2 S (O)(=NH)CH2 CH2 CH(NH2)COOH]
- SAM-synthetase activity, % of untreated animals (SAM-synthetase): about 40%
- depletion of glutathione (glutathione): depleted liver and aortic glutathione

Compound: [H]/N=C(/N)N[C@H]1[C@H](O)[C@@H](O)[C@H](O[C@@H]2O[C@@H](C)[C@](O)(C=O)[C@H]2O[C@@H]2O[C@@H](CO)[C@H](O)[C@@H](O)[C@@H]2NC)[C@@H](N/C(N)=N\[H])[C@@H]1O [streptomycin]
- surviving bacteria (Brucella canis): only a minor reduction in the number of surviving bacteria

Compound: Nc1ncnc2c1ccn2[C@@H]1O[C@H](CO)[C@@H](O)[C@H]1O [Tubercidin, 7-deazaadenosine]
- SAH hydrolase inhibition (SAH hydrolase): inhibits SAHH
- LD50 [13]: 45 mg/kg
- inhibition of E. coli tRNA methylases [14]: inhibitory to tRNA methylases isolated from E. coli
- rRNA processing (rRNA processing): inhibits rRNA processing in addition to methylation of tRNA and protein and nucleic acid synthesis
- formation of mature rRNA [15]: inhibit the formation of mature 28S and 18

Compound: Nc1ncn([C@@H]2O[C@H](CO)[C@@H](O)[C@H]2O)c(=O)n1 [5-Azacitidine]
- formation of 28S and 18S RNA [16]: severely inhibited

Compound: NC1(C(=O)O)CCCC1 [cycloleucine, 1-aminocyclopentane-1-carboxylic acid]
- improved killing, increase over control ([17]; 0.1M in Brain Heart Infusion Agar (FIG. 3)): 240%
- increase in the size of the clear zone ([17]; inhibitor pre-mixed with BHIA or TSA, with erythromycin (FIG. 3)): increase in the size of the clear zone
- increase in the size of the clear zone [18]: increase in the size of the clear zone
- decrease in internal m^6 A [19]: > 30%
- SAM synthetase inhibition (SAM synthetase): inhibitor of SAM synthetase
- inhibition [20]: effective inhibitors
- growth inhibiting effects (rat leukemia (BNML)): synergistic growth inhibiting effects
- IC50 (L1210 cells [9]): 5000 µM

Compound: Nc1ncnc2c1ncn2[C@@H]1O[C@H]([C@H](CSCC[C@H](N)C(=O)O)OP(=O)(O)OP(=O)(O)NP(=O)(O)O)[C@@H](O)[C@H]1O [5'(R)-(C)-[(L-homocysteine-S-yl)methyl]adenosine 5'-(β,γ-imidotriphosphate)]
- inhibition [21]: most effective inhibitor
- inhibition [22]: most effective inhibitor

Compound: Nc1nccc2c1ncn2[C@@H]1C=C(CO)[C@@H](O)[C@H]1O [3-Deazaneplanocin A, 3-deazaneplanocin A]
- enhanced killing with erythromycin ([17]; in combination with erythromycin): enhanced the killing
- cytotoxicity relative to neplanocin A (cytotoxicity): significantly less cytotoxic than neplanocin A
- methylation of 28S rRNA, 18S rRNA and tRNA [23]: inhibit the methylation of 28S rRNA, 18S rRNA and tRNA
- antiviral activity and cytotoxicity vs first generation (SAHH hydrolase): retained antiviral activity and considerably lower cytotoxicity than their parent first generation inhibitors

Compound: CCC[C@@H]1C[C@@H](C(=O)N[C@@H]([C@H]2O[C@H](SC)[C@H](O)[C@@H](O)[C@H]2O)[C@H](C)Cl)N(C)C1 [clindamycin]
- activity against anaerobic bacteria (anaerobic bacteria): potent against anaerobic bacteria

From US5872104A, “Combinations and methods for reducing antimicrobial resistance” (Oridigm Corporation, priority 1994, dated 1999)
